According to ChEMBL document CHEMBL5665443, “Enzyme Inhibitor Single Concentration assay results for EUbOPEN Chemogenomics Library” (2024):
Where “and” joins values, the source holds several entries; their conditions need not be identical. Equal values may be shown once.

Key:
[1] = molecular target: Methyl-CpG-binding domain protein 4 (Homo sapiens) (UniProt O95243); conditions: Hit No;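 also: MBD4 activity read as fluorescence at 594 nm from cleavage and release of a quenched duplex DNA oligonucleotide, with APE1 coupled to incise the strand and raise turnover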
Chain of Methyl-CpG-binding domain protein 4 (Homo sapiens) (O95243 whole entry, the tested form may be a part): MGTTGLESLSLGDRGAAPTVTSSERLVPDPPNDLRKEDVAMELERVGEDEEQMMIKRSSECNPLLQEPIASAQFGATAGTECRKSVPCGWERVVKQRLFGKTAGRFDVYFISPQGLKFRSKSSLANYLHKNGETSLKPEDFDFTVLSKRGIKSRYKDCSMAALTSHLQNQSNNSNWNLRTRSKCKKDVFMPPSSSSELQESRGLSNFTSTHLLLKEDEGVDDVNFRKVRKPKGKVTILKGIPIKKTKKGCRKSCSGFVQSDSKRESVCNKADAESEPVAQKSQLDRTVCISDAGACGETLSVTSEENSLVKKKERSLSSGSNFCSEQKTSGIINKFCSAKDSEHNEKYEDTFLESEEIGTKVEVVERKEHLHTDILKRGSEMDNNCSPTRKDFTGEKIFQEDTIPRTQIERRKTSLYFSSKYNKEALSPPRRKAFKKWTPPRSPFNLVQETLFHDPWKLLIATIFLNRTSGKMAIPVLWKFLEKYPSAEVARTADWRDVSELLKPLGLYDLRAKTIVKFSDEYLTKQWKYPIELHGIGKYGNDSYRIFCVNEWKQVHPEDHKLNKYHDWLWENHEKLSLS

[2] = molecular target: Uracil-DNA glycosylase (Homo sapiens) (UniProt P13051);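 also: UNG excision on a quenched double-stranded DNA oligo probe, with APE1 added for strand incision and turnover, read as fluorescence at 594 nm as strands separate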
Chain of Uracil-DNA glycosylase (Homo sapiens) (P13051 whole entry): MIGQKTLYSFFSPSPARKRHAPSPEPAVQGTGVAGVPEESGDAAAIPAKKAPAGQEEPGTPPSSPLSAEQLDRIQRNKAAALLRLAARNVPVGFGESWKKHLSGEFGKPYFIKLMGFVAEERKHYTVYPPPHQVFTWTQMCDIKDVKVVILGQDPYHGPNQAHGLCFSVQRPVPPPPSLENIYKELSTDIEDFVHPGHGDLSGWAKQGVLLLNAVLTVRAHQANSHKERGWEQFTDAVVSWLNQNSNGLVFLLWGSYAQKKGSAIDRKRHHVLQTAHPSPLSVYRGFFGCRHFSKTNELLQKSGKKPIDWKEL

[3] = molecular target: G/T mismatch-specific thymine DNA glycosylase (Homo sapiens) (UniProt Q13569);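 also: human TDG cleavage of quenched duplex DNA oligonucleotides coupled to APE1, strand release read as fluorescence at 594 nm, inhibition of TDG activity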
Chain of G/T mismatch-specific thymine DNA glycosylase (Homo sapiens) (Q13569 whole entry): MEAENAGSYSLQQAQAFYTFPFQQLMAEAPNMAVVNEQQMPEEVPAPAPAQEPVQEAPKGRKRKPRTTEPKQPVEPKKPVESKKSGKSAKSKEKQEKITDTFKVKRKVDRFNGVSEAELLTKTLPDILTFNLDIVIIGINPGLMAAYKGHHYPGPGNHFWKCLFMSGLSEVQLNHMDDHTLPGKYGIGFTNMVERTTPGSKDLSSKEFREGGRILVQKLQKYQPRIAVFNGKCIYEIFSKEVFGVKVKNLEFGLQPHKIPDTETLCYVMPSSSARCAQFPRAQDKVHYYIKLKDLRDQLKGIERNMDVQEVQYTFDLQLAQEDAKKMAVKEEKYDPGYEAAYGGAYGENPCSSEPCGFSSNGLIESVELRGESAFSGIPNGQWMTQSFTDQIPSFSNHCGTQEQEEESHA

[4] = molecular target: N-glycosylase/DNA lyase (Homo sapiens) (UniProt O15527); conditions: Hit No;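 also: OGG1 cleavage of a quenched duplex DNA oligonucleotide, coupled to APE1 for strand incision, read as fluorescence at 594 nm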
Chain of N-glycosylase/DNA lyase (Homo sapiens) (O15527 whole entry): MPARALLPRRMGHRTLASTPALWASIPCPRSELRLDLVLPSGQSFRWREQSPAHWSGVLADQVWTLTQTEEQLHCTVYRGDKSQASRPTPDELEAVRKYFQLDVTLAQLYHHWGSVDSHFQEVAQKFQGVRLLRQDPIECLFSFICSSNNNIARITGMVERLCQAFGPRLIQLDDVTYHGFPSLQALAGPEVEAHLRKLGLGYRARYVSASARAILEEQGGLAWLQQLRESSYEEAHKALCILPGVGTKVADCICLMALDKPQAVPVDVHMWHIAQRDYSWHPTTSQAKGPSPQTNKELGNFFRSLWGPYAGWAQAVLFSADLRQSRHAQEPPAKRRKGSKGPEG

[5] = molecular target: DNA-3-methyladenine glycosylase (Homo sapiens) (UniProt P29372); conditions: Compound Concentration 10.0 uM, Hit No;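 also: enzyme assay where MPG cuts a quenched duplex DNA oligonucleotide probe, paired with APE1 for strand incision and turnover, read as fluorescence at 594 nm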
Chain of DNA-3-methyladenine glycosylase (Homo sapiens) (P29372 whole entry): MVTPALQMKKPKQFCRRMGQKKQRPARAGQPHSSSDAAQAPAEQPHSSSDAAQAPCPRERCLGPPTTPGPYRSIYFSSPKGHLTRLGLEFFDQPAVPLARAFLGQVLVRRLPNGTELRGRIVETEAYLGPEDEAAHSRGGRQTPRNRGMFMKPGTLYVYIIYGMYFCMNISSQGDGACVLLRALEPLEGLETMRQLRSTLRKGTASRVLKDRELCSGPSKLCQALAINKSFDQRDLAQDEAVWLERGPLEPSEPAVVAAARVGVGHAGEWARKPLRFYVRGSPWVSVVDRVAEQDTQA

[6] = molecular target: T1, Single-strand selective monofunctional uracil DNA glycosylase (Homo sapiens) (UniProt Q53HV7); conditions: Hit No;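 also: enzymatic SMUG1 assay coupled with APE1, reading fluorescence at 594 nm released when a quenched double-stranded DNA oligonucleotide substrate is cleaved and separated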
T1 sequence (whole entry): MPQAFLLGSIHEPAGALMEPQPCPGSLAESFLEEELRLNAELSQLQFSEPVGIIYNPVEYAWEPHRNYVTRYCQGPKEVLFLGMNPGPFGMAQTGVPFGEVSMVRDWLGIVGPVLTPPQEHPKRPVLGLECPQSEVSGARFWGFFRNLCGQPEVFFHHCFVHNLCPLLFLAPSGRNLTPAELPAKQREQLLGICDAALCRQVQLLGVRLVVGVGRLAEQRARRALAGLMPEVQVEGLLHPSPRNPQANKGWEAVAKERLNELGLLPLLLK

[7] = molecular target: Endonuclease 8-like 1 (Homo sapiens) (UniProt Q96FI4); conditions: Hit No;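 also: fluorescence at 594 nm from quenched duplex DNA oligonucleotides released by NEIL1 cleavage and strand separation, reported as reduction of this enzyme activity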
Chain of Endonuclease 8-like 1 (Homo sapiens) (Q96FI4 whole entry): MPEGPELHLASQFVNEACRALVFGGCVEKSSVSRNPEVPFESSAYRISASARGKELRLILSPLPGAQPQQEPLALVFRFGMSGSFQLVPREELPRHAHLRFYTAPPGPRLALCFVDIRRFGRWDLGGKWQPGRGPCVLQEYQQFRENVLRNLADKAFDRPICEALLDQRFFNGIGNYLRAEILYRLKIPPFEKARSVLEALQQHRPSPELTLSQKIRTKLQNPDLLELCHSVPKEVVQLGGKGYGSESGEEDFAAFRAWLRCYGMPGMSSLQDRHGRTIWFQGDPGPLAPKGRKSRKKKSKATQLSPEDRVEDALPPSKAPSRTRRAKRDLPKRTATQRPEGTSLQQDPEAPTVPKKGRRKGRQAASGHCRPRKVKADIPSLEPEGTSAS

[8] = molecular target: T2, Endonuclease 8-like 2 (Homo sapiens) (UniProt Q969S2); conditions: Compound Concentration 10.0 uM, Hit No;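 also: fluorescence at 594 nm reports NEIL2 cutting and release of a quenched double-stranded DNA oligo substrate, reduced signal read as inhibition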
T2 sequence (whole entry): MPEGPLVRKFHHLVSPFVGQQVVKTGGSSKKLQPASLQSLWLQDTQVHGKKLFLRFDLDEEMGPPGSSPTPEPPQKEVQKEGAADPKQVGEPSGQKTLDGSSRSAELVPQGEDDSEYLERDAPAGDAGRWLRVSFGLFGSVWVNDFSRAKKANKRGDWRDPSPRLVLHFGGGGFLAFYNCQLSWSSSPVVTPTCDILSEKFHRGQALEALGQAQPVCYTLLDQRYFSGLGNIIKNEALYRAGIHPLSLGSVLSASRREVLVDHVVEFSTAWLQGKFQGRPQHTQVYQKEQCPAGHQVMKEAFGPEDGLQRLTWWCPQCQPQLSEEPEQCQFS

[9] = molecular target: T3, Endonuclease III-like protein 1 (Homo sapiens) (UniProt P78549); conditions: Hit No;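 also: enzyme assay tracking NTHL1 cutting and release of a quenched double-stranded DNA oligo substrate, read as fluorescence at 594 nm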
T3 sequence (whole entry): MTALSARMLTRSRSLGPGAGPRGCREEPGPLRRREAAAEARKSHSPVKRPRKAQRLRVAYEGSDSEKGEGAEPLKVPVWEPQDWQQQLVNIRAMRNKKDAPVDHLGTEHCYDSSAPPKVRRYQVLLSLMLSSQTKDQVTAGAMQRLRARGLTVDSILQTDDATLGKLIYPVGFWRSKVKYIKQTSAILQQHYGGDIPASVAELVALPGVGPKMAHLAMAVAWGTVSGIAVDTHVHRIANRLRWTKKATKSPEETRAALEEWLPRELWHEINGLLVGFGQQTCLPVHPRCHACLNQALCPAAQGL

[10] = molecular target: T4, Adenine DNA glycosylase (Homo sapiens) (UniProt Q9UIF7); conditions: Hit No;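 also: human MUTYH activity read as 594 nm fluorescence from cleavage and release of a quenched DNA duplex, coupled with APE1 for strand incision, lower signal meaning inhibition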
T4 sequence (whole entry): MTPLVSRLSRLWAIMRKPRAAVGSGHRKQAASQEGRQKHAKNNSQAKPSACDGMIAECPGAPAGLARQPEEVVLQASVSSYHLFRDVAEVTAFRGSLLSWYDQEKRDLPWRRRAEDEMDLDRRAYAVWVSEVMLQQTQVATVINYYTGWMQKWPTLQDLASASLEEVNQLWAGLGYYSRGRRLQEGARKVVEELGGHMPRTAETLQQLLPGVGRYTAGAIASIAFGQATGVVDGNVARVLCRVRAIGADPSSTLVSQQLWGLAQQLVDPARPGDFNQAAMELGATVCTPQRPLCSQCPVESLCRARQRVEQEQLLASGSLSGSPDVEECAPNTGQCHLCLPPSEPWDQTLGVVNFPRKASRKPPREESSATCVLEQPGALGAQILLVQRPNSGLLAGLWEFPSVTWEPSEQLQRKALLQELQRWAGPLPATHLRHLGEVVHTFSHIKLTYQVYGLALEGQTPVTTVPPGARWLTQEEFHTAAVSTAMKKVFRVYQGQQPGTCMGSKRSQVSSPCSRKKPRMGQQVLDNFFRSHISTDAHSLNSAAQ

[11] = Compound Concentration 10.0 uM, Hit No
[12] = Compound Concentration 10.0 uM, Hit Yes
[13] = Compound Concentration 1.0 uM, Hit No

SMILES	inhibition ([1]; Compound Concentration 10.0 uM)	inhibition [2, 11]	inhibition [3, 11] [%]	inhibition ([4]; Compound Concentration 10.0 uM)	inhibition [5]	inhibition ([6]; Compound Concentration 10.0 uM) [%]	inhibition ([7]; Compound Concentration 10.0 uM)	inhibition [8]	inhibition ([9]; Compound Concentration 10.0 uM) [%]	inhibition ([10]; Compound Concentration 10.0 uM)	inhibition [3, 12]	inhibition [2, 12] [%]	inhibition ([1]; Compound Concentration 1.0 uM) [%]	inhibition [2, 13] [%]	inhibition [3, 13] [%]	inhibition ([4]; Compound Concentration 1.0 uM) [%]	inhibition ([6]; Compound Concentration 1.0 uM) [%]	inhibition ([7]; Compound Concentration 1.0 uM) [%]	inhibition ([9]; Compound Concentration 1.0 uM) [%]	inhibition ([10]; Compound Concentration 1.0 uM) [%]
CC(=O)Nc1cccc2c1c(Sc1ccc(Cl)cc1)c(C)n2CC(=O)O	11.4%	-0.965%	16.4	3.49%	5.39%	-1.39	-0.204%	5.76%	6.32	23.9%	–	–	–	–	–	–	–	–	–	–
CC1(C)[C@H]2C[C@H](C/C=C\CCCC(=O)O)[C@@H](NC(=O)c3csc4ccc(O)cc34)[C@@H]1C2	19.3%	-7.99%	20.1	3.96%	9.36%	-7.2	13.3%	3.51%	-3.21	14.6%	–	–	–	–	–	–	–	–	–	–
Cn1ncnc1COc1nn2c(-c3cc(F)ccc3F)nnc2cc1C(C)(C)C	6.48%	-5.8%	6.81	-6.92%	-8.96%	-5.72	1.64%	-8.5%	-7.69	-2.13%	–	–	–	–	–	–	–	–	–	–
c1ccc2nc(N3CCNCC3)ccc2c1	-0.572%	1.1%	12.3	-7.23%	-3.87%	2.02	8.31%	7.8%	13.8	11.1%	–	–	–	–	–	–	–	–	–	–
CCCCCCCCc1ccc(CC[C@](N)(CO)COP(=O)(O)O)cc1	-2.75%	-7.46%	7.26	0.481%	7.62%	0.742	9.14%	6.75%	-3.94	6.04%	–	–	–	–	–	–	–	–	–	–
O=C1CC[C@@]2(O)[C@H]3Cc4ccc(O)c5c4[C@@]2(CCN3CC2CC2)[C@H]1O5	4.42%	-2.62%	27.8	-3.73%	4.49%	-9.51	-9.92%	-8.5%	-4.39	14.6%	–	–	–	–	–	–	–	–	–	–
Cc1cccc([C@H]2CC[C@@H](N3CCN(c4cccnc4)CC3)CC2)c1 (mixture of isomers)	56.1%	1.66%	47.1	4.72%	39%	15.5	1.34%	9.59%	-0.258	35.8%	–	–	–	–	–	–	–	–	–	–
N[C@](CC1c2ccccc2Oc2ccccc21)(C(=O)O)[C@H]1C[C@@H]1C(=O)O	16.1%	-3.16%	24.2	-5.15%	10.3%	-0.127	0.898%	0.414%	8.82	12.3%	–	–	–	–	–	–	–	–	–	–
O=[N+]([O-])c1ccc2nc(COCc3nc4ccc([N+](=O)[O-])cc4[nH]3)[nH]c2c1	19.9%	0.834%	27.1	7%	18.4%	4.96	12.5%	2.2%	0.568	6.46%	–	–	–	–	–	–	–	–	–	–
C[C@H](N)COC(=O)[C@@H](CCCCN)NC(=O)Cc1c(-c2ccc3ccccc3c2)[nH]c2c1ccc1ccccc12	95.3% and 102%	4.7% and 1.53%	–	-2.94% and 9.96%	58.5% and 61.8%	4.71	2.76% and 13.3%	14.7% and 12.7%	5.59	122% and 125%	88.5% and 91%	–	–	–	–	–	–	–	–	–
O=c1c(Br)ccc2n1C[C@@H]1CNC[C@H]2C1	13.1%	-0.226%	22.8	-1.3%	3.69%	8.97	1.79%	-6.72%	8.82	-5.79%	–	–	–	–	–	–	–	–	–	–
CCn1cc(-c2ccnc3[nH]c(-c4cccc(CN(C)C)c4)cc23)c(-c2ccc(NC(=O)N(C)C)cc2)n1	22.5%	–	49	14.9%	62.9%	24.3	-6.47%	23.1%	2.18	78.6%	–	25	–	–	–	–	–	–	–	–
FC(F)(F)c1ccccc1-c1cc(C(F)(F)F)c2[nH]c(C3=NOC4(CCCCC4)C3)nc2c1	2.91%	-6.03%	6.11	-6.32%	0.733%	-0.41	0.00926%	0.669%	-6.04	-3.71%	–	–	–	–	–	–	–	–	–	–
FC(F)(F)c1ccc(Nc2ncnc3cc(-c4ncccc4C(F)(F)F)ccc23)cc1	18.4%	1.01%	25	5.12%	12.8%	19.7	11.7%	2.71%	-4.39	26.4%	–	–	–	–	–	–	–	–	–	–
O=C1C[C@@H]2OCC=C3CN4CC[C@]56c7ccccc7N1[C@H]5[C@H]2[C@H]3C[C@H]46	11.5%	-3.11%	11.6	-7.16%	-1.64%	-0.692	0.602%	-1.88%	10.5	38.1%	–	–	–	–	–	–	–	–	–	–
Cn1cc(Cl)c2c(Oc3c(F)cc(Nc4cc(Cl)nc(N)n4)cc3F)ccnc21	64.2%	11.7%	53.4	-9.66%	-1.23%	27.1	4.86%	2.57%	-1.29	40.4%	–	–	-4.8	2.73	48.5	-2.36	17.9	-7.79	8.46	1.46
O=c1cccc2n1C[C@@H]1CNC[C@H]2C1	10.5%	-3.14%	-5.51	-5.41%	-3.1%	-3.8	-1.18%	-3.15%	-4.39	43.9%	–	–	–	–	–	–	–	–	–	–
O=C(O)CCc1ccc(NCc2cccc(Oc3ccccc3)c2)cc1	13.6%	-1.29%	20	-0.368%	6.47%	-4.08	-7.7%	-9.01%	-4.39	13.9%	–	–	–	–	–	–	–	–	–	–
Cc1ccc(C(C)(O)c2nc3ccccc3s2)c(C)c1 (stereo not drawn)	0.731%	-8.45%	14.6	2.68%	10.5%	9.99	7.8%	11%	8.52	0.661%	–	–	–	–	–	–	–	–	–	–
O=C(Nc1ccc(S(=O)(=O)Nc2nccs2)cc1)C(c1ccccc1)c1ccccc1	66%	3.78%	52.5	-6.39%	34%	7.67	-2.51%	-1.11%	17.9	80.2%	–	–	–	–	–	–	–	–	–	–
